According to patent US9724408B2, “Compositions and methods for activating stimulator of interferon gene-dependent signalling” (ADURO BIOTECH, INC., priority 2013, dated 2017):

Columns and labels:
hSTING (REF) = target: T1, hSTING (REF) (Homo sapiens, UniProt Q86WV6); test: IFNβ-LUC reporter in HEK293T cells expressing hSTING (REF); type: cell-based; details: 10 μM, digitonin permeabilization, 6 hrs, FIG. 14
T1 construct: GFP; expressed in transfected cells; plasmid from the Vance Laboratory, UC Berkeley
Protocol: MSCV2.2 plasmids encoding hSTING(REF)-GFP, hSTING(WT)-GFP, hSTING(HAQ)-GFP, hSTING(Q)-GFP and mSTING(WT)-GFP were obtained from the Vance Laboratory at UC Berkeley. hSTING(AQ)-GFP was derived from hSTING(Q)-GFP using a QuickChange Site-Directed Mutagenesis kit (Stratagene). […] 1×10^4 HEK293T STING cells were seeded in 96-well plates and transiently transfected (using Lipofectamine 2000) with 50 ng of a human IFN-β reporter plasmid (pLuc-IFN-β) expressing the human IFN-β promoter upstream of a luciferase reporter and 10 ng of TK-renilla for normalization. 24 hours later, cells were stimulated with native and synthetic CDN derivative molecules using digitonin permeabalization to ensure uniform uptake. Each STING cell line was stimulated with 10 μM of cyclic [G(3′,5′)pA(3′,5′)p] (cGAMP), cyclic [G(2′,5′)pA(3′,5′)p] […] (RR-CDA), cyclic [A(2′,5′)pA(3′,5′)p] […] (RR-CDG), cyclic [G(2′,5′)pG(3′,5′)p] […] (ML RR-CDG) in 25 ul digitonin buffer (50 mM HEPES, 100 mM KCL, 3 mM MgCl2, 0.1 mM DTT, 85 mM Sucrose, 0.2% BSA, 1 mM ATP, 0.1 mM GTP, 10 ug/ml digitonin). After 20 min, the stimulation mixtures were removed and 200 ul of standard RPMI media was added. After stimulation for 6 hrs, cell lysates were prepared and reporter gene activity measured using the Dual Luciferase Assay System (Promega) on a Spectramax M3 luminometer.

[1] = system: CT26 colon carcinoma cells; test: CT26 colon carcinoma flank tumor model, intratumoral CDN; type: in vivo, BALB/c mice; details: for complete inhibition of tumor growth of established CT26 tumors: every three days, three injections, 8 mice per group, FIG. 19B
Protocol: Either CT26 colon carcinoma cells (1×10^5 cells in 100 μL PBS) or 4T1 mammary carcinoma cells (1×10^5 cells in 100 μL PBS) were implanted subcutaneously on the flanks of 6-8 week old female BALB/c mice (8 mice per group). Treatments began when tumors reached a volume of approximately 75 mm^3, which was approximately day 14 post tumor implantation. The compounds Rp, Rp dithio cyclic [A(2′,5′)pA(3′,5′)p] (ML RR-CDA) or Rp, Rp dithio cyclic [G(2′,5′)pG(3′,5′)p] (ML RR-CDG) compounds (25 μg in a total volume of 40 μL HBSS), or HBSS vehicle control, and Rp, Rp dithio cyclic [A(2′,5′)pA(3′,5′)p] (ML RR-CDA) (50 μg in a total volume of 40 μL HBSS) or HBSS vehicle control, were administered by subcutaneous injection into the center of the tumor using a 27 gauge needle. Injections were repeated every three days, for a total of three intratumoral injections.
(§1) To determine whether the synthetic derivative CDN molecules elicit durable and effective anti-tumor T-cell immunity, 6-8 week old female BALB/c mice (8 mice per group) were implanted with CT26 colon carcinoma cells (1×10^5 cells in 100 μL PBS). Mice were treated with Rp, Rp dithio cyclic [A(2′,5′)pA(3′,5′)p] (ML RR-CDA) compound ([…] in a total volume of 40 μL HBSS) or HBSS vehicle control, and tumor growth was monitored as per previous example. Mice were bled on day 18 post tumor implantation and PBMCs were isolated by Ficoll gradient (Miltenyi Biotech). 5×10^4 PBMCs were stimulated overnight in an IFNγ ELISpot assay with media alone (unstimulated), or with 1 μM of the endogenous H-2 L^d-restricted tumor rejection antigen AH1 peptide in the presence of 1×10^5 naïve splenocytes as feeder cells. IFN-γ ELISpot plates were developed and quantified using a CTL plate reader and ImmunoSpot software. On day 55 post tumor implantation, surviving mice and age-matched naïve control mice were implanted on the contralateral flank with either CT26 or 4T1 (both 1×10^5 cells in 100 μL PBS) tumor cells (4 mice per group), and monitored for tumor growth.

CT26 = test: Re-challenge of surviving mice with CT26 tumor cells on the contralateral flank; type: in vivo, BALB/c mice
Protocol: as §1, with “growth. […]” for “growth.”

4T1 = test: Re-challenge of surviving mice with 4T1 tumor cells on the contralateral flank; type: in vivo, BALB/c mice
Protocol: as §1, with “growth. […]” for “growth.”

B16 melanoma cells = test: Abscopal model, B16 flank tumor plus intravenous B16 lung colonization; type: in vivo, C57BL/6 mice; details: three injections
Protocol: To determine whether the synthetic CDN derivative molecules promote abscopal anti-tumor immunity in an alternative tumor model and mouse genetic background, 6-8 week old female C57BL/6 mice (8 mice per group) were implanted with B16 melanoma cells (5×10^4 cells in 100 μL PBS) in the right flank. One week later mice were implanted intravenously with 1×10^5 B16 melanoma cells to colonize the lung, along with a group of naïve age-matched control mice. When the subcutaneous flank tumor reached approximately 75 mm^3 on day 13, mice were treated intratumorally with Rp, Rp dithio cyclic [A(2′,5′)pA(3′,5′)p] (ML RR-CDA) (50 μg in a total volume of 40 μL HBSS) or HBSS vehicle control, for three injections as per previous protocol. On day 28 post subcutaneous tumor implantation (day 21 post i.v. implantation), mice were euthanized and lungs were harvested and fixed (10% Neutral Buffered Formalin), and the number of lung tumor nodules counted using a dissecting microscope.

[2] = re-challenge on day 35 post tumor implantation, FIG. 22B
[3] = re-challenge on day 55 post tumor implantation, FIG. 21C

T1 sequence (Q86WV6 whole entry): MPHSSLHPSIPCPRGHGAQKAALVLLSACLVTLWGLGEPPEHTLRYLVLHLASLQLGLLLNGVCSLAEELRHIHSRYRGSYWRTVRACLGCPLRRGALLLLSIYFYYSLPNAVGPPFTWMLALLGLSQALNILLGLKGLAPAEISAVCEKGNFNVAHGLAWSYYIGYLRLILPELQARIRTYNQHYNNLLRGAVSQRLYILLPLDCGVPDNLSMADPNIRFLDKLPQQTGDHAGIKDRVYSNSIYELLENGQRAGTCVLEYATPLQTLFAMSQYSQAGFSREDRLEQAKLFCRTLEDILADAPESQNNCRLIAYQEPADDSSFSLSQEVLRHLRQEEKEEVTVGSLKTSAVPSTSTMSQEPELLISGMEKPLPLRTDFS

| SMILES | IFNβ reporter response of hSTING (REF) (hSTING (REF)) | complete inhibition of tumor growth of established CT26 tumors [1] | rejection of established CT26 colon carcinomas ([1]; 50 mg in a total volume of 40 μL HBSS, FIG. 21A) | protection against CT26 re-challenge, survivors of 4T1 tumors (CT26; [2]) | protection against CT26 re-challenge, survivors of CT26 tumors (CT26; [3]) | protection against 4T1 re-challenge, survivors of 4T1 tumors (4T1; [2]) | protection against 4T1 re-challenge, survivors of CT26 tumors (4T1; [3]) | growth of distal lung tumor nodules (B16 melanoma cells; 50 μg into the flank tumor, lungs on day 28, FIG. 24B, 24C) | tumor growth of the primary flank tumor (B16 melanoma cells; 50 μg intratumoral, P<0.001, FIG. 24A) |
| --- | --- | --- | --- | --- | --- | --- | --- | --- | --- |
| Nc1nc2c(ncn2[C@@H]2O[C@@H]3CO[P@@](O)(=S)O[C@@H]4[C@H](O)[C@@H](CO[P@@](O)(=S)O[C@H]3[C@H]2O)O[C@H]4n2cnc3c(=O)[nH]c(N)nc32)c(=O)[nH]1 [ML RR-CDG, dithio-[RP,RP]-cyclic-[G(2′,5′)pG(3′,5′)p]] | responsive to stimulation | 7 out of 8 | – | – | – | – | – | – | – |
| Nc1ncnc2c1ncn2[C@@H]1O[C@@H]2COP(O)(=S)O[C@@H]3C(O)[C@@H](COP(O)(=S)O[C@H]2[C@H]1O)O[C@H]3n1cnc2c(N)ncnc21 (stereo partly shown) [ML RR-CDA, dithio-[RP, RP]-cyclic-[A(2′,5′)pA(3′,5′)p]] | – | completely inhibited tumor growth of all established CT26 tumors | all mice treated with ML RR-CDA rejected the growth of established CT26 colon carcinomas | complete protection | complete protection against the same CT26 tumor type | complete protection | not inhibiting growth of the 4T1 tumor type | significantly inhibited the growth of distal lung tumor nodules | significantly inhibited tumor growth of the primary flank tumor |
